Laboratory results taken from patent US7528169B2, “Substance having antitumor/anti-inflammatory activity” (Riken, priority 2001, dated 2009).

Experiments:
[1] = test system: NF-κB; test: Inhibitory effect on NF-κB activation by TPA (luciferase reporter, pGL3-NF1, in COS-7 cells); assay type: cell-based; conditions: TPA 50 ng/ml, 10 to 100 μg/ml, 24 hours
Experimental: COS-7 cells maintained in a DMEM medium (containing 5% bovine fetal serum) were transfected with a plasmid (pGL3-NF1) containing 5xNF-κB binding sequence (5′-[…]-3′) (SEQ ID NO: 1) located upstream of the luciferase gene. The cells were added with TPA (50 ng/ml) and RKB-3564S and RKB-3564SAC in a series of dilution, and cultured for 24 hours, and then the activity of produced luciferase was measured to calculate the inhibitory effect on NF-κB activation by TPA.

[2] = test system: MCF-7 cells derived from human mammary cancer; test: Inhibitory effect on proliferation of tumor cells (MTT survival rate) under 1% or 20% oxygen; assay type: cell-based; conditions: 10 to 100 μg/ml, 48 hours, 1% oxygen vs 20% oxygen
Experimental: MCF-7 cells derived from human mammary cancer were cultured in a RPMI medium (containing 5% bovine fetal serum). The cells were added with RKB-3564S and RKB-3564SAC in a series of dilution, cultured under the condition of 1% oxygen concentration or 20% oxygen concentration for 48 hours, then added with MTT reagent [3-(4,5-dimethyl-thiazol-2-yl)-2,5-diphenyltetrazolium bromide], and further cultured for 2 to 4 hours, and then the absorption at 570 nm was measured to calculate the survival rate.

[3] = Solubility (physico-chemical properties); assay type: physicochemical
Experimental: The physico-chemical properties of […] are shown below. • Appearance: colorless powdery crystals • Melting point: 71.5-72° C. (dec.) • Molecular formula: C10H12O2 • High-resolution mass spectrum (HR-RABMS): (M+H)^+Found (m/z): 165.0868 Calcd. […] Insoluble in n-hexane.

Compound	inhibition of transcription activation by NF-κB [1]	inhibition of cell proliferation under 1% oxygen compared to 20% oxygen [2]	Solubility in methanol or dimethyl sulfoxide ([3]; methanol or dimethyl sulfoxide)	Solubility in n-hexane ([3]; n-hexane)
C/C=C/c1cccc(OC(C)=O)c1COC(C)=O [RKB-3564SAC]	inhibited transcription activation by NF-κB	significantly inhibited cell proliferation		
C/C=C/c1cccc(O)c1CO [RKB-3564S]	inhibited transcription activation by NF-κB	significantly inhibited cell proliferation	easily soluble	Insoluble
